Data published in patent publication US11357770B2, “Method of treating immunoglobulin light chain amyloidosis” (ALTERITY THERAPEUTICS LIMITED, priority 2016, dated 2022).
pIC50: −log10 of the molar value. Entries after “also recorded” stand apart in the source; their conditions may differ.

Columns and labels:
C. elegans [1] = experiment: C. elegans pharyngeal pumping rate (LC-induced pharyngeal dysfunction); conditions: for ROS generation and pumping dysfunction caused by cardiotoxic LC: 2 nM 1033, 50 μM TETRA or 5 mM NAC with 100 μg/mL LC
Protocol: Worms were fed for 2 h with 100 μg/mL H7-BJ in the absence or presence of 0-25 nM 1033. Control worms received vehicle alone (dotted line). Each value is the mean±SE, n=30. […] (B) Images obtained from the overlay of a contrast phase and MitoSOX fluorescence (arrows). Scale bar 50 μm. (C) The effects of cardiotoxic LC, 1033, cardotoxic LC+1033, H2O2 and H2O2+1033 on pharyngeal function. (D) The effects of Chelex® and EDTA on LC induced pharyngeal dysfunction.
MM2-BJ (Myeloma) and H7-BJ (Cardiotoxic LC) and in 5 mM PBS, pH 7.4, were administered to worms (100 worms/100 μL) at 100 μg/mL alone or with 50 μM TETRA or 5 mM NAC. Control worms received vehicle alone (Vehicle). After incubation for 2 h in the absence of OP50 E. coli, worms were plated on NGM plates seeded with bacteria.
Bristol N2 strain, transgenic CL2070 dvIs70 Is[hsp-16.2::gfp; rol-6(su1006)], CF1553 muls84 [(pAD76) sod-3p::GFP+rol-6] and TJ356, zls356Is[daf-16::daf-16-gfp; rol-6] were obtained from the Caenorhabditis elegans Genetic Center (CGC, University of Minnesota, USA) and propagated at 20° C. on solid Nematode Growth Medium (NGM) seeded with E. coli OP50 (from CGC) for food. The effect of LC on pharyngeal behaviour was investigated (Diomede et al. 2014). Briefly, ancestral N2 and transgenic CL2070, TJ356 and CF1553 worms were incubated with 100 μg/mL LC listed in Table 1A (100 worms/100 μL) in 5 mM PBS, pH 7.4. Control worms were incubated with 5 mM PBS, pH 7.4 (Vehicle) only. After 2 h of incubation on orbital shaking, worms were transferred onto NGM plates seeded with OP50 E. coli. The pharyngeal pumping rate, measured by counting the number of times the terminal bulb of the pharynx contracted over a 1-minute interval, was scored 20 h later. Experiments were also performed by feeding worms for 2 h with 100 μg/mL of H6-BJ, H7-BJ, H18-BJ, MM2-BJ, MM4-BJ or MM7-BJ alone or with 125 μM copper (as CuSO4).
The experimental conditions of Example 4 were repeated with cardiotoxic LC H7-BJ with or without 1033, Chelex® resin or EDTA as well as 1033, H2O2 and H2O2 together with 1033.

DAF-16 = experiment: DAF-16::GFP nuclear translocation in TJ356 nematodes; assay type: in vivo, Caenorhabditis elegans; conditions: 100 μg/mL H7-BJ 2 h with 2 nM 1033, 50 μM TETRA or 5 mM NAC
Protocol: (A) Image of DAF-16::GFP expression in control vehicle-fed and (B) cardiotoxic LC-fed worms (100 μg/mL H7-BJ for 2 h). (C-D) The subcellular distribution of DAF-16 expression in worms fed 2 h: vehicle, 100 μg/mL H7-BJ with or without 2 nM 1033, 50 μM tetracycline (TETRA) or 5 mM N-acetyl-cysteine (NAC). According to DAF-16 localization worms were divided into two phenotypes including “cytosolic” and “nuclear”. The percentage of DAF-16 localization in respect to vehicle fed worms was calculated based on 3 experiments, N=100. Mean±SE. **p<0.01 vs. vehicle, ºp<0.05 and ººp<0.01 vs. cardiotoxic LC, one-way ANOVA and Bonferroni's post hoc test. (E/F) Transgenic worms were fed with 1 mM H2O2 for 30 minutes as a positive control. DAF-16::GFP distribution (E) and HSP-16.2 and SOD-3 expression visualized by GFP-fluorescence (F).
(§1) DAF-16::green fluorescent protein (GFP) nuclear translocation was evaluated in TJ356 nematodes. Pharyngeal expression of HSP-16.2::GFP and SOD-3::GFP was determined in CL2070 and CF1553 worms, respectively. […] Organisms were scored as positive for nuclear localization when green foci were observed throughout the entire body from head to tail and as cytosolic when DAF-16::GFP was diffuse. The number of worms with each level of translocation were counted (at least 100 worms/condition). […] Average pixel intensity values were calculated by sampling images of different animals. […]

H7-BJ cardiotoxic LC = experiment: Amplex Red H2O2 assay; assay type: biochemical, human; conditions: 100 μg/mL H7-BJ incubated with 2 nM 1033, room temperature
Protocol: H7-BJ and MM2-BJ proteins (100 μg/mL) in 10 mM sodium phosphate buffer (PB), pH 7.4, were incubated at room temperature in the presence or absence of 50 μM Chelex® resin or 2 nM 5,7-dichloro-8-hydroxy-2-(dimethylaminomethyl)quinoline (1033). Different times after incubation (0-2 h), 2 μL of solutions were put into a 96-well black plate, diluted 1:100 (vol/vol) with 10 mM PBS, pH 7.4, and the amount of H2O2 generated was determined by using the Amplex Red assay kit (Molecular probes, Life Technologies). To this end, 50 μL working solution of 100 μM Amplex Red and 200 mU/mL horseradish peroxidase in 10 mM PB, pH 7.4, was added to each well. The plate was shaken and incubated at room temperature for 30 min, protected from light. The fluorescence was read on a Tecan Infinite M200 microplate reader (Tecan, Austria) at excitation wavelength of 563 nm and emission wavelength of 587 nm. Averages and standard deviations were converted to H2O2 concentrations.

C. elegans [2] = experiment: Endogenous metal levels (Cu, Zn, Fe) in C. elegans; assay type: in vivo, Caenorhabditis elegans; conditions: 100 μg/mL H7-BJ + 2 nM 1033
Protocol: FIG. 3 provides graphical representations of endogenous metal levels and the effects of added copper on C. elegans pharyngeal function. Worms fed with 100 μg/mL MM2-BJ (myeloma), 100 μg/mL cardiotoxic LC H7-BJ, cardiotoxic LC+ 2 nM 1033, or metal free water (vehicle) were analysed for the amount of endogenous Cu (A), Zn and Fe (B).

C. elegans N2 worms = experiment: C. elegans life span experiments; assay type: in vivo, Caenorhabditis elegans
Protocol: N2 worms (100 worms/100 μL), at L3 larval stage, were fed for 2 h 100 μg/mL of H7-BJ alone or with 2 nM 1033. Worms were then transferred onto fresh NGM plates seeded with E. coli in the presence of the same drug concentration. Control worms were exposed, under the same conditions, to vehicle alone. After 20 h nematodes were transferred to fresh NGM plates seeded with bacteria and the number of live worms was scored (considered as day 0). To avoid overlapping generations, the worms were then transferred every day, in the absence of fluorodeoxyuridine, until they stopped laying eggs. To test the effect of repeated administration of 1033, worms were fed for 2 h 100 μg/mL of H7-BJ and 2 nM 1033 and then transferred onto fresh NGM plates seeded with E. coli in the presence of the same drug concentration. Then nematodes were transferred every day, in a new NGM plate in the presence of freshly dissolved 2 nM 1033. The number of live worms was determined for each consecutive day until all worms were dead.

HSP-16.2 = experiment: Pharyngeal expression of HSP-16.2::GFP in CL2070 worms; assay type: in vivo, Caenorhabditis elegans; conditions: 100 μg/mL H7-BJ + 2 nM 1033, CL2070 worms
Protocol: (§2) Transgenic worms were fed for 2 h with: Vehicle (i, 5 mM PBS, pH 7.4) 100 μg/mL MM2-BJ (ii, Myeloma), 100 μg/mL H7-BJ (iii, Cardiotoxic LC), or 2 nM 1033 (iv, Cardiotoxic LC+ 1033). (A) Images of the HSP-16.2 expression as overlays of GFP-fluorescence and light microscopy in CL2070 transgenic worms. Scale bar 50 μm. (C) Images of SOD-3 expression as GFP-fluorescence (arrows) in CF1553 transgenic worms. Scale bar 50 μm. Quantified GFP intensity in (B) CL2070 and (D) CF1553 worms in response to treatments. Fluorescence intensity in each group was calculated as mean grey value+SE based on 3 experiments, N=25. **p<0.01 vs. Vehicle and ºp<0.05 and ººp<0.01 vs. Cardiotoxic LC, one-way ANOVA and Bonferroni's post hoc test.
as §1, with “animals. Mean pixel intensity for each experimental group was calculated using Cell-F software (Olympus).” for “animals.”

SOD-3 = experiment: Pharyngeal expression of SOD-3::GFP in CF1553 worms; assay type: in vivo, Caenorhabditis elegans; conditions: 100 μg/mL H7-BJ + 2 nM 1033, CF1553 worms
Protocol: as §2
as §1, with “animals. Mean pixel intensity for each experimental group was calculated using Cell-F software (Olympus).” for “animals.”

C. elegans [3] = experiment: Pharyngeal function, drugs administered after damage by cardiotoxic LC; assay type: in vivo, Caenorhabditis elegans; conditions: H7-BJ 1.5 h
Protocol: Pharyngeal performance of worms fed 100 μg/mL H7-BJ (Cardiotoxic LC) for 1.5 h and then treated for 30 min with 20 µM tetracycline (TETRA), 0.5-2 nM 1033 alone or together with 20 μM TETRA. Control worms fed vehicle alone. **p<0.001, *p<0.005 vs. vehicle, ººp<0.001 vs. Cardiotoxic LC, one-way ANOVA and Bonferroni's post hoc test. §§ p<0.01 significant interaction vs. worms fed Cardiotoxic LC+ 0.5 nM 1033, two-ways ANOVA and Bonferroni's post hoc test.
To reflect circumstances most likely encountered in the clinic drugs were administered to worms when the pharynx was already damaged by cardiotoxic LC. […] Then drugs were administered for 30 min and the pumping rate was scored.
Feeding experiments in which nematodes were fed H7-BJ for 1.5 h to generate pharangeal dysfunction, subsequently 20 μM TETRA, 0.5 nM 1033, 2 nM 1033, 20 μM TETRA and 0.5 nM 1033.

Stability of the drug = assay type: physicochemical

| pIC50 (C. elegans [1]; Caenorhabditis elegans, read-out: IC50 value of TETRA (pharyngeal dysfunction)) | Structure (SMILES) | ROS generation and pumping dysfunction caused by cardiotoxic LC (C. elegans [1]) | effect on the pharyngeal pumping dysfunction caused by cardiotoxic LC (C. elegans [1]; 100 μg/mL H7-BJ with 50 μM TETRA or 5 mM NAC, pumping 20 h after plating) | activation (nuclear translocation) of DAF-16 induced by the cardiotoxic LC (DAF-16) | H2O2 (ROS) production by H7-BJ (H7-BJ cardiotoxic LC) | pharyngeal impairment caused by all cardiotoxic LC under investigation (C. elegans [1]; 2 nM 1033) | pumping rate, 1033 alone (C. elegans [1]; 1033 alone, no LC) | pharyngeal toxicity induced by exposure to exogenous H2O2 (C. elegans [1]; H2O2 + 1033) | cardiotoxic LC-induced elevation of copper levels in worms (C. elegans [2]) | median survival (C. elegans N2 worms; H7-BJ + 2 nM/day 1033 (repeated administration), vehicle 13 days) [days] | protective effect on survival, single dose (C. elegans N2 worms; single dose of 1033 at 2 nM, H7-BJ-fed worms) | LC-induced HSP-16.2 protein expression in the pharynx (HSP-16.2) | LC-induced SOD-3 protein expression in the pharynx (SOD-3) | maximal recovery of pharangeal function (C. elegans [3]; then 2 nM 1033) [%] | restoring pharangeal function after damage by H7-BJ (C. elegans [3]; then 20 μM TETRA or 0.5 nM 1033 alone) | restoring pharyngeal function after damage by H7-BJ (C. elegans [3]; then drug 30 min, 2 nM 1033 or 20 μM TETRA) | stability under physiological conditions and in a variety of standard solvents (Stability of the drug) |
| --- | --- | --- | --- | --- | --- | --- | --- | --- | --- | --- | --- | --- | --- | --- | --- | --- | --- |
|  | CC(=O)N[C@@H](CS)C(=O)O [NAC, N-acetyl cysteine, reference compound] | capable of neutralizing | protective effect | not observed |  |  |  |  |  |  |  |  |  |  |  |  |  |
| 4.70 | CN(C)[C@@H]1C(O)=C(C(N)=O)C(=O)[C@@]2(O)C(O)=C3C(=O)c4c(O)cccc4[C@@](C)(O)[C@H]3C[C@@H]12 [TETRA, tetracycline, reference compound] |  |  |  |  |  |  |  |  |  |  |  |  |  |  |  |  |
|  | CN(C)Cc1ccc2c(Cl)cc(Cl)c(O)c2n1 [compound 1033, 5,7-dichloro-8-hydroxy-2-(dimethylaminomethyl)quinoline] | capable of neutralizing |  | counteracted | significantly attenuated; also recorded: did prevent the increase | completely abolished | did not affect | did not counteract | counteracted | 13 | No protective effect | significantly reduced | significantly reduced | 53 | no effect | restoring normal pharyngeal function | extremely stable |
